# EP1132382A1, “3-Oxy-7-sulfamyl-3,4-dihydro-1,2,4-benzothiadazine-1,1-dioxide derivatives having diuretic and/or natriuretic activity” (Farma Invent B.V., priority 2000, dated 2001)
# What was measured:
# [1] = Bioavailability study of epithiazide in healthy volunteers; assay type: in vivo
# [2] = Hydrolysis of epithiazide to hydroxyhydrothiazide in aqueous phosphate buffer; assay type: physicochemical; conditions: 0.067 m phosphate buffer, pH=7, 37°C, 0.067 M aqueous phosphate buffer, read-out: epithiazide cleaved into hydroxyhydrothiazide
# Method: Figure 1: Hydrolysis of epithiazide to hydroxyhydrothiazide under various temperatures and pH in a 0.067 M phosphate buffer.
# Epithiazide was contacted with an aqueous phosphate buffer of 0.067 M at two different temperatures (RT and 37°C), at different pHs, ranging from 5,2 to 13.
# [3] = pKa of isolated hydroxyhydrothiazide; assay type: physicochemical; conditions: isolated and purified product
# Method: The hydroxyhydrothiazide was synthesised by the hydrolysis of epithiazide. Conversion to hydroxyhydrothiazide was completed in 72 hours at 37 °C in a 0.067 M phosphate buffer.
# [4] = Intravenous administration to dogs: elimination and urine production; assay type: in vivo; conditions: 0.08-0.4 mg/kg
# Method: The pharmacotherapeutic activity of the hydroxyhydrothiazides has been evaluated. The natriuretic an/or diuretic activity has been determined by testing on animals and healthy volunteers.
# The elimination from the body was monitored for 48 hours. […] The diuretic effect was monitored by measuring the urine production.
# [5] = after administration of a suitable dose of epithiazide
"detection in the plasma [1, 5]","detection in the urine [1, 5]",degraded at 10 h [2],biological half-life (relative to epithiazide) ([1]; compound found after administration of epithiazide),pKa [3],distribution of the compound throughout the body [4],half-life compared with conventional thiazide-based diuretics such as epithiazide and hydrochlorothiazide ([4]; elimination monitored for 48 hours),Structure (SMILES),diuretic effect (urine production) [4]
no epithiazide could be detected,detected,> 80%,–,–,–,–,NS(=O)(=O)c1cc2c(cc1Cl)NC(CSCC(F)(F)F)NS2(=O)=O (centres unmarked) [epithiazide],–
–,–,–,longer biological half-life,9.5,rapid distribution,about twice as long,NS(=O)(=O)c1cc2c(cc1Cl)NC(O)NS2(=O)=O (centres unmarked) [hydroxyhydrothiazide],instant diuretic effect
